# Laboratory results taken from PubChem BioAssay (NCI).
#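 Where inhibition never reached the appropriate level, the endpoint shown equals the highest concentration tested. Otherwise, values were interpolated linearly from a five-concentration, 48-hour dose response in 96-well plates. GI50: concentration for 50% inhibition of growth. TGI denotes the concentration required for complete inhibition of growth.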
# Key:
# Test in all cases: NCI-60 cell line screen, 48 h
# ACHN renal = tested on: ACHN renal
# SF-295 CNS = tested on: SF-295 CNS
# UACC-62 melanoma = tested on: UACC-62 melanoma
# CAKI-1 renal = tested on: CAKI-1 renal
# SF-268 CNS = tested on: SF-268 CNS
# OVCAR-5 ovarian = tested on: OVCAR-5 ovarian
# CCRF-CEM leukemia = tested on: CCRF-CEM leukemia
# SK-MEL-5 melanoma = tested on: SK-MEL-5 melanoma
# SW-620 colon = tested on: SW-620 colon
# SN12C renal = tested on: SN12C renal
SMILES,GI50 (ACHN renal) [µM],TGI (ACHN renal) [µM],GI50 (SF-295 CNS) [µM],TGI (SF-295 CNS) [µM],GI50 (UACC-62 melanoma) [µM],TGI (UACC-62 melanoma) [µM],GI50 (CAKI-1 renal) [µM],TGI (CAKI-1 renal) [µM],GI50 (SF-268 CNS) [µM],TGI (SF-268 CNS) [µM],GI50 (OVCAR-5 ovarian) [µM],TGI (OVCAR-5 ovarian) [µM],GI50 (CCRF-CEM leukemia) [µM],TGI (CCRF-CEM leukemia) [µM],GI50 (SK-MEL-5 melanoma) [µM],TGI (SK-MEL-5 melanoma) [µM],GI50 (SW-620 colon) [µM],TGI (SW-620 colon) [µM],GI50 (SN12C renal) [µM],TGI (SN12C renal) [µM]
CC(=O)[CH-]C(C)=O.[CH2-]C.[CH2-]C.[Tl+3],> 100,> 100,> 100,> 100,> 100,> 100,> 100,> 100,> 100,> 100,> 100,> 100,> 100,> 100,> 100,> 100,> 100,> 100,> 100,> 100
CC(=O)OC1COC(n2c(=S)n(-c3ccccc3)c(=O)c3cc(Br)ccc32)C(OC(C)=O)C1OC(C)=O (stereo not drawn),–,> 100,–,> 100,–,> 100,–,> 100,–,> 100,–,> 100,–,> 100,–,> 100,–,> 100,–,> 100
COC1OC(C)C(OCc2ccccc2)C(OS(=O)(=O)c2ccc(C)cc2)C1OS(=O)(=O)c1ccc(C)cc1 (stereo not drawn),–,> 100,–,> 100,–,–,–,> 100,–,> 100,–,> 100,–,> 100,–,> 100,–,> 100,–,> 100
CC(=O)NNc1nc(C)c(C(=O)NNC(=O)C(=O)Nc2nc3ccc([N+](=O)[O-])cc3s2)s1,–,> 100,–,> 100,–,> 100,–,> 92.6,–,> 100,–,> 100,–,56.5,–,> 81.5,–,> 100,–,> 100
C#CCC(N)(CO)C(=O)O (stereo not drawn),–,> 100,–,> 100,–,> 100,–,> 100,–,> 100,–,> 100,–,–,–,> 100,–,> 100,–,–
CC(=O)[O-].CC(=O)[O-].CC(=O)[O-].CC(=O)[O-].[Mo+2].[Mo+2],> 100,> 100,> 100,> 100,> 100,> 100,> 100,> 100,> 100,> 100,> 100,> 100,> 100,> 100,> 100,> 100,> 100,> 100,> 100,> 100
CC1=C(C(=O)Nc2ccccc2C)C(/C=C/c2ccccc2)C(C(=O)Nc2ccccc2C)=C(C)N1,–,> 100,–,> 100,–,> 100,–,> 100,–,> 100,–,> 100,–,> 100,–,> 100,–,> 100,–,> 100
OC(c1ccc(Br)cc1)(c1cccs1)C1CC1 (stereo not drawn),–,76.3,–,44.6,–,33.3,–,69.6,–,45.4,–,70.5,–,91.8,–,33,–,87.5,–,–
O=C(c1ccc2ccccc2c1)c1c(C(F)(F)F)n([O-])c2ccc(Cl)cc2[n+]1=O,1.63,2.98,1.66,3.08,1.71,3.08,1.63,3.01,1.04,2.33,1.87,3.58,–,–,1.36,2.65,1.41,2.7,1.69,3.2
C=CCSc1nc2ccccc2c(=O)n1Cc1ccco1,–,> 100,–,> 100,–,> 100,–,> 100,–,> 100,–,> 100,–,–,–,> 100,–,> 100,–,> 100
Cn1c2ccccc2c2c(=O)c3ccccc3[nH]c21,31.1,> 100,82.8,> 100,69.7,> 100,> 100,> 100,25,> 100,30.8,> 100,–,–,42.9,> 100,40.7,> 100,38.5,> 100
COCCOCCOCc1n(Cc2ccc3ccccc3n2)c2ccccc2[n+]1Cc1ccc2ccccc2c1,2.04,5.68,0.804,2.58,0.364,1.36,–,–,0.464,1.85,0.557,7.43,0.532,2.45,0.357,1.16,0.769,5.37,0.362,1.41
O=C1c2cccnc2-c2nc(-c3ccncc3)cc3c2c1nc1ccccc13,12.1,24.4,15.1,28.4,–,–,16.4,34.8,15.1,34.5,31.2,> 100,8.03,39.6,14.1,36.5,12.7,41.6,20,47.5
Cn1c([N+](=O)[O-])cnc1/C=C1\Oc2cc(Cl)ccc2C1=O,0.209,–,2.72,> 42.7,–,–,0.296,1.18,0.371,2.85,2.47,7.84,0.148,0.754,0.289,1.22,0.159,1.06,0.713,6.65
CCOC(=O)C(=O)Nc1ccccc1C(F)(F)F,–,> 100,–,> 100,–,> 100,–,> 100,–,> 100,–,> 100,–,–,–,–,–,> 100,–,> 100
C[C@H]1[C@H](C)CC[C@]2(C(=O)NCCNCCN)CC[C@]3(C)C(=CC[C@@H]4[C@@]5(C)CCC(=O)C(C)(C)[C@@H]5CC[C@]43C)[C@H]12,1.76,3.27,–,–,1.6,2.96,1.75,4.01,–,–,2.9,11.3,–,–,1.8,3.23,1.84,3.47,1.61,2.98
CCCCCCCCCCCCCCCCCCNC(=O)[C@H]1CSC(c2cccs2)N1 (stereo partly drawn),30.9,> 50,5.58,> 50,0.908,1.69,1.03,2.09,1.11,2.34,1.17,2.57,0.372,2.03,–,–,0.881,1.91,0.885,1.76

SMILES,GI50 (ACHN renal) [µM],TGI (ACHN renal) [µM],GI50 (SF-295 CNS) [µM],TGI (SF-295 CNS) [µM],GI50 (UACC-62 melanoma) [µM],TGI (UACC-62 melanoma) [µM],GI50 (CAKI-1 renal) [µM],TGI (CAKI-1 renal) [µM],GI50 (SF-268 CNS) [µM],TGI (SF-268 CNS) [µM],GI50 (OVCAR-5 ovarian) [µM],TGI (OVCAR-5 ovarian) [µM],GI50 (CCRF-CEM leukemia) [µM],TGI (CCRF-CEM leukemia) [µM],GI50 (SK-MEL-5 melanoma) [µM],TGI (SK-MEL-5 melanoma) [µM],GI50 (SW-620 colon) [µM],TGI (SW-620 colon) [µM],GI50 (SN12C renal) [µM],TGI (SN12C renal) [µM]
O=C1C=C(O)c2[nH]c(=O)ccc2C1=O,–,> 100,–,> 100,–,> 100,–,> 100,–,> 100,–,–,–,> 100,–,> 100,–,> 100,–,> 100
COc1ccc(CC(C)C(C)Cc2ccc(OC)c(OC)c2)cc1OC (stereo not drawn),> 1400,> 1400,642,> 1400,1130,> 1400,> 1400,> 1400,> 1400,> 1400,> 1400,> 1400,–,–,112,> 1400,> 1400,> 1400,> 1400,> 1400
Cc1cc(Nc2nc(SCc3ccc(C(=O)Nc4ccc(F)cc4N)cc3)nn3cccc23)n[nH]1,1.24,13,0.354,25.9,0.347,21.6,–,–,1.12,> 100,0.657,> 100,0.411,> 100,0.334,2.43,0.426,> 100,1.25,> 100
O=C(O)CCC(NC(=S)S)C(=O)O.[Na+].[Zn+2] (stereo not drawn),> 50,> 50,–,–,> 50,> 50,> 50,> 50,> 50,> 50,> 50,> 50,> 50,> 50,> 50,> 50,> 50,> 50,> 50,> 50
CC1(Cc2ccccc2)NC(=S)NC1=O (stereo not drawn),–,> 100,–,> 100,–,–,–,> 100,–,> 100,–,> 100,–,–,–,–,–,> 100,–,> 100
O=c1ncccn1C1C=C(CO)C(O)C1O (stereo not drawn),–,> 50,–,> 50,–,–,–,> 50,–,> 50,–,> 50,–,> 50,–,> 50,–,> 50,–,–
CC(=O)N[C@H](C(=O)N[C@@H](CCCNC(=N)N)C(=O)N[C@@H](CCCCN)C(=O)N[C@@H](CCCNC(=N)N)C(=O)N[C@]1(C)CCCCCC/C=C\CCC[C@@](C)(C(=O)N[C@@H](CCCNC(=N)N)C(=O)N[C@@H](CCC(=O)O)C(=O)N[C@@H](CC(C)C)C(=O)N[C@H](C(=O)N[C@@H](CCC(=O)O)C(N)=O)C(C)C)NC(=O)[C@H](CCC(N)=O)NC(=O)[C@H](CC(C)C)NC(=O)[C@H](CC(C)C)NC(=O)[C@H](CCCNC(=N)N)NC(=O)[C@H](CCCNC(=N)N)NC(=O)[C@H](CC(C)C)NC1=O)C(C)C,8.06,28.1,4.4,30.1,–,–,2.06,11.7,1.47,4.58,11.5,41.2,7.28,26.7,1.1,2.62,7.84,20.2,2.33,> 50
CC(C)c1ccccc1NC(=O)/C(Cl)=C1/Sc2ccccc2NC1=O,–,> 100,–,–,–,> 100,–,> 100,–,> 100,–,> 100,–,82.8,–,78.8,–,> 100,–,> 100
COc1cccc(/C=C2\CCC(C)(CN(C)C)C2=O)c1 (stereo not drawn),–,> 100,–,> 100,–,> 100,–,> 100,–,> 100,–,> 100,–,–,–,> 100,–,> 100,–,> 100
Cn1c(/C(C#N)=C/c2ccc3ccccc3c2)cc2ccccc21,0.125,> 100,0.11,0.463,0.0425,> 100,0.0605,> 100,–,–,0.411,> 100,0.267,> 100,0.455,> 100,0.0935,> 100,0.389,> 100
NC(=O)/C=C/C(=O)O,–,> 5000,–,> 5000,–,> 5000,–,–,–,> 5000,–,> 5000,–,> 5000,–,> 5000,–,> 5000,–,> 5000
CCSc1nc(N)c2cn[nH]c2n1,31.3,> 100,32.1,85.3,18,38.9,22.3,76,25.3,74.1,21.8,63.1,–,–,18.5,43.6,31.7,> 100,28.7,70.9
O=c1c2c3c(sc2n2c(-c4cc(-c5ccccc5)nn4-c4ccccc4)nnc2n1Cc1ccccc1)CCCC3,> 100,> 100,> 100,> 100,> 100,> 100,> 100,> 100,> 100,> 100,> 100,> 100,–,–,> 100,> 100,–,–,> 100,> 100
C=CCC1[C@@H](C(C)(C)C(C(C)=O)C(=O)C(=O)OC)OC(C(C)(C)C)N1C(=O)OC (stereo partly drawn),–,> 100,–,> 100,–,> 100,–,–,–,> 100,–,> 100,–,> 100,–,> 100,–,–,–,> 100
c1ccc(Cn2cnc3ccc(-c4nc(-c5ccc6c(c5)ncn6C5CCCCC5)cn5ccnc45)cc32)cc1,3.08,> 100,–,–,–,–,2.45,> 100,2.48,> 100,–,–,2.18,> 100,–,–,–,–,–,–
O=C(NC12CC3CC(CC(C3)C1)C2)C(=O)c1c[nH]c2ccc(Cl)cc12,–,> 100,–,65.2,–,> 100,–,–,–,> 100,–,> 100,–,> 100,–,> 100,–,–,–,> 100
